Here are results for four molecules from patent publication US8980922B2, “5-HT4 receptor agonists for the treatment of dementia” (Raqualia Pharma Inc., priority 2010, dated 2015).

Test [1] relates to Male IGS rats. Put plainly: Spontaneous alteration test in rats (scopolamine-induced impairment). Format: in vivo, rat. The method, then:
Spontaneous Alteration Test in Rats (Method Referred: Eur. J. Pharmacol., 236 (1993) 341-345)
Male IGS rats (6 weeks-old, Charles River Laboratories Japan, Inc.) were used in this study. The scopolamine solution or saline was administered intraperitoneally 30 minutes after the administration of the test substance or vehicle. Thirty minutes after the injection, the rat was placed at the end of one arm toward to the end of the arm and was allowed to move freely through the maze for 8-min test session. The sequence of arm entries was recorded manually. Alteration was defined as entry into all three arms on consecutive choices. The percent alteration as an indicator of spontaneous alteration performance was calculated as (number of alterations/total number of arm entries minus 2)×100.
The effect of Compound A on the scopolamine-induced impairment of spontaneous alteration performance in rats was investigated. In the percent alterations, the values on saline- and scopolamine-treated groups were 75.2% and 53.9%, respectively.

For test [2], the system named is Male IGS rats. Briefly: Rat Novel Object Recognition Study. Format: in vivo. The method, then:
Rat Novel Object Recognition Study (Method Referred: PNAS, 101 (2003) 853-858)
Male IGS rats (9 weeks-old, Charles River Laboratories Japan, Inc.) were used in this study. Compound A and donepezil hydrochloride (reference substance) were orally administered at 60 min before training trial and before retention trial. Number of animals per group was 15. Open-field box (40×40×40 cm) with sawdust covering its floor was used in this study. As for the training trials, the animals were allowed to explore two identical objects (A1 and A2) for 3 min. The objects are plastic “LEGO bricks” that vary in shape, color, and size. […]
Exploration of an object was defined as pointing the nose to the object at a distance of <1 cm and/or touching it with the nose. DVD images were analyzed by an observer who was […] of the treatment condition. To assess cognitive performance, the time spent exploring the familiar (TA3) and novel (TB) object, and discrimination index (DI; (TB−TA3)/(TB+TA3)) was analyzed. […] To assess the overall levels of exploratory performance, total time spent exploring the both objects was analyzed.
For Compound A, discrimination index was analyzed using Bartlett's test followed by Dunnett's multiple comparison test. […] For donepezil, discrimination index was analyzed using F-test, followed by Student's t-test. […]

The test system of test [3] is rat hippocampus (Hip) ACh level. Briefly: Increase of hippocampus ACh release in rats (microdialysis). The settings on record: direct injection (perfusion via dialysis probe, 120 min) into rat Hip; 100 nM eserine in aCSF. It counts as in vivo. On the procedure:
Increase of Hippocampus ACh Release in Rats
Effects of Compound A on rat hippocampus (Hip) ACh level were tested using microdialysis in Male Wistar rats. One day before the start of the experiments, rats were anesthetized and guide cannula was implanted in the dorsal Hip. One day after surgery, a dialysis probe was inserted through a guide cannula in Hip and perfused with artificial cerebrospinal fluid (aCSF) containing 148 mM NaCl, 2.7 mM KCl, 1.2 mM CaCl2, 0.85 mM MgCl2, together with 100 nM eserine. After a 1 h equilibration period, sample collection began. Outflow fractions were collected every 20 min. After six stable baseline fractions were collected, the perfusate was replaced to aCSF containing Compound A with 100 nM eserine for 120 min, and then it was switched again to aCSF with 100 nM eserine alone. Dialysis fractions were then analyzed using high performance liquid chromatography with an electrochemical detection system. Isopropyl homocholine was used as internal standard. The amount of ACh in each dialysate sample was calculated from the peak height ratio of ACh/IPHC. ACh content was expressed as a percent of baseline calculated from the average of three samples preceding drug infusion.
ACh content was expressed as a percent of baseline calculated from the average of three samples preceding drug infusion.

The test system of the next test is Tg2576 mice. Put plainly: Abeta reduction in Tg2576 mice. Format: in vivo. The settings on record: 1 and 10 mg/kg BID orally, three weeks; soluble plus insoluble Abeta, ELISA. The method, then: Female Tg2576 mice that express the human amyloid precursor protein (APP) gene with the Swedish mutation (APPSWE) were purchased from Taconic Farms (catalog #001349-TF).
Tg2576 mice (31-week old at the beginning of the experiment) were dosed orally twice a day (BID) for 3 weeks with 0.1, 1, or 10 mg/kg Compound A in the vehicle consisting of 0.5% methylcellulose and 0.1% Tween 80. Mice were euthanized three hours after the last dose. Brain tissues were collected and homogenized in 5-volumes of ice-cold TBS buffer (50 mM Tris-HCl) containing 1% CHAPS and protease inhibitors. The homogenates were centrifuged at 14,000 g for 10 minutes at 4° C., and the resulting supernatants were collected as soluble pool of Abeta. The pellets were dissolved in the starting volume of 5 M guanidine in TBS buffer and the resulting homogenates were collected as insoluble pool of Abeta. Abeta1-40 and Abeta1-42 were quantified using commercially available ELISA kits according to the manufacture's instructions. Measurements were performed in duplicate. The final values of Abeta in the brain were expressed as nanograms per gram wet brain weight. Total Abeta levels were obtained by adding the values of the soluble and insoluble Abeta levels.
(In general: In an ELISA, binding on a coated surface is turned into a signal by an enzyme label.)

The next test has as its system Abeta. The conditions noted are these: NPL 13; cited from earlier work.

Where a name gives a salt, the structure may show the parent alone.

In the case of `CC(C)n1c(=O)n(C(=O)NCC2CCN(CC3(O)CCOCC3)CC2)c2ccccc21` [Compound A, N-((1-((4-hydroxytetrahydro-2H-pyran-4-yl)methyl)piperidin-4-yl)methyl)-3-isopropyl-2-oxo-2,3-dihydro-1H-benzo[d]imidazole-1-carboxamide], in the test on Male IGS rats [1] (0.1 and 3 mg/kg, scopolamine-induced impairment), the percent alteration result is reported as “showed a tendency to improve without statistical significance”. The percent alteration result with Male IGS rats [1] (doses of 0.3 and 1 mg/kg, scopolamine-induced impairment, vs vehicle-treated group (p<0.01)) is “significantly increased the percent alterations”. In the test on Male IGS rats [2] (Compound A 0.1, 0.3, 1 mg/kg, orally 60 min before training and retention trial, vs vehicle (*p<0.05, **p<0.01, Dunnett)), the discrimination index entry is given as “statistically significant compared to that in vehicle-treated group”. Besides, the “ACh concentration (percent of baseline)” value in test [3] came to 187%. Besides, in the test with Tg2576 mice, the “total brain Abeta1-40 levels” value was “significantly decreased total brain Abeta1-40 levels”; the “total brain Abeta1-42 levels” value is “dose-dependently and substantially decreased total brain Abeta1-42 levels”.

On to `CC(C)n1c(=O)c(C(=O)NCCCN2CCCCC2)c(O)c2ccsc21` [PRX-03140], for which the “Abeta reduction in animal models” value with Abeta was “Abeta reducing tendency while those efficacies were not significant suppressions”.

Turning to `CN1[C@@H]2C[C@@H](OC(=O)[C@H](CO)c3ccccc3)C[C@H]1[C@@H]1O[C@@H]12` [scopolamine, reference compound], the percent alteration with Male IGS rats [1] (scopolamine-treated group (intraperitoneal), saline-treated group 75.2%, p<0.01) was 53.9%.

`COc1cc2c(cc1OC)C(=O)C(CC1CCN(Cc3ccccc3)CC1)C2` (stereo not drawn) [donepezil, donepezil hydrochloride, reference compound]: the discrimination index entry in the test on Male IGS rats [2] (donepezil-treated group, orally, vs vehicle (p<0.05, Student's t-test)) is given as “statistically significant compared to that in vehicle-treated group”.
